17 compounds from article PMC4657098, “A Review of the Updated Pharmacophore for the Alpha 5 GABA(A) Benzodiazepine Receptor Model” (International Journal of Medicinal Chemistry, 2015) can be followed below.

pKi: −log10 of the molar value. Read-outs that look alike come from different tables or passages of the source. Bounds are passed on as bounds.

Common to all, as to design: expressed in transfected cells
In assay [1] the target is α5β3γ2 GABAA/BzR (Homo sapiens, UniProt P18507+P31644). Nature of the assay: Competition binding to HEK cell membranes, α5β3γ2.
Assay [2] addresses α2β3γ2 GABAA/BzR (Homo sapiens, UniProt P18507+P47869). Briefly: Competition binding to HEK cell membranes, α2β3γ2.
The target in assay [3] is α6β3γ2 GABAA/BzR (Homo sapiens, UniProt P18507+Q16445). Nature of the assay: Competition binding to HEK cell membranes, α6β3γ2.
For assay [4], the target named is α3β3γ2 GABAA/BzR (Homo sapiens, UniProt P18507+P34903). Briefly: Competition binding to HEK cell membranes, α3β3γ2.
Assay [5] has as its target α1β3γ2 GABAA/BzR (Homo sapiens, UniProt P14867+P18507). Nature of the assay: Competition binding to HEK cell membranes, α1β3γ2.

Broadly, the pKi is −log10 of the Ki, conventionally taken in molar units. As for `Cc1nnc2n1-c1ccc(Br)cc1C(c1ccccc1Cl)=NC2` [DM-II-90 (C17H12N4BrCl)], the negative-log Ki (pKi) is 9.43 in assay [1] (read-out: Ki α5), 9.00 in assay [2] (read-out: Ki α2), 5.30 in assay [3] (read-out: Ki α6) and 9.20 in assay [4] (read-out: Ki α3).
Take `O=C(OCC(Cl)(Cl)Cl)c1ncn2c1CN=C(c1ccccc1)c1cc(Br)ccc1-2` [DM-II-33 (C20H13N3O2BrCl3)]: the pKi is 7.58 in assay [1] (read-out: Ki α5); 7.05 in assay [5] (read-out: Ki α1); 7.07 in assay [2] (read-out: Ki α2); 5.30 in assay [3] (read-out: Ki α6); 7.94 in assay [4] (read-out: Ki α3).
On to `CCOC(=O)c1ncoc1-c1ncn2c1C1CCN1C(=O)c1cc(C#C[Si](C)(C)C)ccc1-2` (centres unmarked) [RY-068 (11)], for which the pKi was 7.43 in assay [1] (Figure 5, read-out: Ki α5); below 6.30 in assay [5] (Figure 5, read-out: Ki α1); 6.06 in assay [2] (Figure 5, read-out: Ki α2); below 6.00 in assay [3] (Figure 5, read-out: Ki α6); 6.30 in assay [4] (Figure 5, read-out: Ki α3).
As for `C#Cc1ccc2c(c1)C(c1cccs1)=NCc1c(C(=O)OCC)ncn1-2` [JC221], the pKi was 8.11 in assay [1] (read-out: Ki α5); 6.97 in assay [5] (read-out: Ki α1); 7.31 in assay [2] (read-out: Ki α2); 6.44 in assay [3] (read-out: Ki α6); 6.74 in assay [4] (read-out: Ki α3).
The like results for `O=C(OCC(F)(F)F)c1ncn2c1CN=C(c1ccccc1)c1ccccc1-2` [DM-II-30] were, in that order, 8.11, 7.75, 7.87, 5.30 and 7.55.
The corresponding values for `CCCC(=O)c1cc2c(cn1)[nH]c1ccccc12` [MSA-IV-35] are 6.00, 8.68, 7.80, 5.52 and 7.68.
`C#Cc1ccc2c(c1)C(=O)N1CCC1c1c(-c3ocnc3C(=O)OCC)ncn1-2` (centres unmarked) [RY-069]: the pKi is 7.72 in assay [1] (Ki α5); 6.16 in assay [5] (Ki α1); 6.21 in assay [2] (Ki α2); 6.00 in assay [3] (Ki α6); 6.30 in assay [4] (Ki α3).
Turning to `CCOC(=O)c1ncc2[nH]c3cc(OC)c(OC)cc3c2c1CC` [MSR-I-032], the pKi in assay [5] (read-out: Ki α1) was 8.21; in assay [2] (read-out: Ki α2), 7.73; in assay [3] (read-out: Ki α6), 7.13; in assay [4] (read-out: Ki α3) it was 8.40.
As for `CC(C)(C)OC(=O)c1ncn2c1[C@@H]1CCCN1C(=O)c1cc(-c3ccco3)ccc1-2` [JYI-06], the pKi in assay [1] (read-out: Ki α5) is 7.90; in assay [5] (read-out: Ki α1), 7.78; in assay [2] (read-out: Ki α2), 8.26; in assay [3] (read-out: Ki α6), 5.30; in assay [4] (read-out: Ki α3) it was 5.30.
For the compound `C#Cc1ccc2c(c1)C(=O)N1CCC1c1c(-c3ocnc3C(=O)OCC)ncn1-2` (centres unmarked) [RY-069 (13)], the pKi in assay [1] (Figure 5, read-out: Ki α5) was 7.72; in assay [5] (Figure 5, read-out: Ki α1), 6.16; in assay [2] (Figure 5, read-out: Ki α2), 6.21; in assay [3] (Figure 5, read-out: Ki α6), below 6.00; in assay [4] (Figure 5, read-out: Ki α3) it was 6.30.
For `CCCCc1cc2c(cn1)[nH]c1ccc(F)cc12` [CM-A58], the pKi in assay [1] (read-out: Ki α5) was 6.00; in assay [5] (read-out: Ki α1) it was 7.80; in assay [2] (read-out: Ki α2), 6.92; in assay [3] (read-out: Ki α6), 5.99; in assay [4] (read-out: Ki α3), 6.74.
The like results for `c1ccc2c(c1)[nH]c1c2ncc2[nH]c3ccccc3c21` [MLT-I-70] were, in that order, 7.39, 8.96, 8.92, 6.00 and 8.96.
Regarding `C#Cc1ccc2c(c1)C(c1ccccc1F)=NCc1c(C(=O)OCC(F)(F)F)ncn1-2` [JYI-59], the pKi in assay [1] (read-out: Ki α5) is 7.94; in assay [5] (read-out: Ki α1) it was 8.97; in assay [2] (read-out: Ki α2), 8.59; in assay [3] (read-out: Ki α6), 5.30; in assay [4] (read-out: Ki α3), 7.93.
The like results for `CC(C)c1nc(-c2ncn3c2CN(C)C(=O)c2c(Cl)cccc2-3)no1` [FG8205, reference compound] were, in that order, 8.81, 9.40, 8.68, 6.64 and 8.94.
The like results for `CCC(C)OC(=O)c1cc2c(cn1)[nH]c1ccccc12` (centres unmarked) [CM-A64] were, in that order, 6.67, 7.74, 7.22, 6.00 and 6.94.
The like results for `C#Cc1ccc2c(c1)C(c1ccccc1)=NCc1c(C(=O)OCC(F)(F)F)ncn1-2` [DM-II-20] were, in that order, 7.81, 7.27, 7.57, 5.30 and 7.45.
Regarding `CC(C)(C)OC(=O)c1ncn2c1[C@@H]1CCCN1C(=O)c1c(Br)cccc1-2` [BRETAZENIL, reference compound], the pKi in assay [1] (Ki α5) is 9.30; in assay [5] (Ki α1), 9.46; in assay [2] (Ki α2), 9.19; in assay [3] (Ki α6), 7.90; in assay [4] (Ki α3), 9.70.
